One data set has as its system A549 cells. Nature of the data set: MTT cytotoxicity assay, A549. It is filed as cell-based. The note with it: Homo sapiens, A549 cell line, average of three determinations. The text has this: (§1) Four human tumor cell lines (A549, H1975, NCI-H460, and MCF-7) and human normal cell line LO2 were selected to evaluate the antiproliferative activity of all target compounds in vitro. Olmutinib was used as a positive control. Results are summarized in Table 1, where the values are the average of at least three independent experiments. […] However, the antiproliferative activities of the compounds that were substituted with the anisidine side chain performed better than the cyano group chain.

Another data set relates to H1975 cells. In words: MTT cytotoxicity assay, H1975. The note with it: Homo sapiens, NCI-H1975, H1975 cell line, average of three determinations. Type of data set: cell-based.
Source text: as §1
On the technique in general: Tetrazolium assays rely on reduction of a dye to a coloured formazan, in cell work by metabolically active cells.

Another data set concerns NCI-H460 cells. Nature of the data set: MTT cytotoxicity assay, NCI-H460. Type of data set: cell-based. The note with it: Homo sapiens, NCI-H460 cell line, average of three determinations.
Source text: as §1

A further data set concerns MCF-7 cells. Nature of the data set: MTT cytotoxicity assay, MCF-7. The note with it: Homo sapiens, MCF7, MCF-7 cell line, average of three determinations. Type of data set: cell-based.
Source text: as §1

The subject of another data set is LO2 cells. Nature of the data set: MTT cytotoxicity assay, normal cell line LO2. Type of data set: cell-based, human. The note with it: L02; human normal cell line LO2, MTT, average of three determinations.
Source text: as §1

In the next data set the target is PI3Kα (Homo sapiens, UniProt P42336). In words: Kinase-Glo Luminescent Kinase Assay, PI3Kα. Type of data set: biochemical. The note with it: average of three determinations. The method, then: Compounds H7 and H10 had excellent antiproliferative activity and were further screened out for kinase inhibition testing. We evaluated compounds H7 and H10 with EGFR^T790M/L858R kinases and PI3Kα kinases.
The specific operation was carried out according to our previous research.
In general terms: In Kinase-Glo more light means more ATP remaining.

Data set [1] relates to HCC827 (EGFR^dell19) cells. The note with it: quoted in the introduction; read-out: IC50 against HCC827 (EGFR^dell19) cells; cited from earlier work.
Data set [2] relates to H1975 (EGFR^L858R/T790M) cells. The note with it: quoted in the introduction; read-out: IC50 against H1975 (EGFR^L858R/T790M) cells; cited from earlier work.
The subject of another data set is A549 (EGFR^WT) cells. The note with it: quoted in the introduction; read-out: IC50 against A549 (EGFR^WT) cells; cited from earlier work.
For data set [3] the following is noted: quoted in the introduction; cited from earlier work.

Some results are limits rather than exact numbers.

Chain of PI3Kα (P42336 whole entry): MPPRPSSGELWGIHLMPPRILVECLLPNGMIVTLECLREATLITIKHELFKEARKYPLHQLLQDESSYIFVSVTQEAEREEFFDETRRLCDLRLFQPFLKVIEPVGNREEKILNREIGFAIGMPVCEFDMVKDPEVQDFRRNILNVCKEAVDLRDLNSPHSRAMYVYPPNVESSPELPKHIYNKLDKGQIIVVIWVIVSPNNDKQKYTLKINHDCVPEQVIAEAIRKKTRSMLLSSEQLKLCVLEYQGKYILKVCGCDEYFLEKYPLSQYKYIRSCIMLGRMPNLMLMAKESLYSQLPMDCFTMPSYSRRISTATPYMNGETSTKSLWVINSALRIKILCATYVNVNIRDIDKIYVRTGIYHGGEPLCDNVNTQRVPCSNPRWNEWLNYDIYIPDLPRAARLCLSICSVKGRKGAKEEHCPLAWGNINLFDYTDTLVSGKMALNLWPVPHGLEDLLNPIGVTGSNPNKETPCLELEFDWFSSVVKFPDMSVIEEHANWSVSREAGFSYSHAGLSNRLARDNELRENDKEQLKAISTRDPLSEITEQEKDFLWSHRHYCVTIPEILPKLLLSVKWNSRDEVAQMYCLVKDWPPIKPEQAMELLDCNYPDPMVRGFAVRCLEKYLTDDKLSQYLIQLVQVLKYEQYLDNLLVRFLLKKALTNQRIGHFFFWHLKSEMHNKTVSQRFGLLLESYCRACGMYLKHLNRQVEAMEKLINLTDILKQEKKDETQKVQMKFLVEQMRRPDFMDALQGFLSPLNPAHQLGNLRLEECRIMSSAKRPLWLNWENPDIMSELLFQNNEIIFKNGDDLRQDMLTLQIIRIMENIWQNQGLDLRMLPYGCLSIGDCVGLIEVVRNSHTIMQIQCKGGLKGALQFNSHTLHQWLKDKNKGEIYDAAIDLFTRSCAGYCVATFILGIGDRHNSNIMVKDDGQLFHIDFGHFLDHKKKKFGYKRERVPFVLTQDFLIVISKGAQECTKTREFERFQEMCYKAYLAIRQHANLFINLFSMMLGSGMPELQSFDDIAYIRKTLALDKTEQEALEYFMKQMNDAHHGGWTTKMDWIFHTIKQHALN
Chain of PI3Kα (P27986 whole entry partner): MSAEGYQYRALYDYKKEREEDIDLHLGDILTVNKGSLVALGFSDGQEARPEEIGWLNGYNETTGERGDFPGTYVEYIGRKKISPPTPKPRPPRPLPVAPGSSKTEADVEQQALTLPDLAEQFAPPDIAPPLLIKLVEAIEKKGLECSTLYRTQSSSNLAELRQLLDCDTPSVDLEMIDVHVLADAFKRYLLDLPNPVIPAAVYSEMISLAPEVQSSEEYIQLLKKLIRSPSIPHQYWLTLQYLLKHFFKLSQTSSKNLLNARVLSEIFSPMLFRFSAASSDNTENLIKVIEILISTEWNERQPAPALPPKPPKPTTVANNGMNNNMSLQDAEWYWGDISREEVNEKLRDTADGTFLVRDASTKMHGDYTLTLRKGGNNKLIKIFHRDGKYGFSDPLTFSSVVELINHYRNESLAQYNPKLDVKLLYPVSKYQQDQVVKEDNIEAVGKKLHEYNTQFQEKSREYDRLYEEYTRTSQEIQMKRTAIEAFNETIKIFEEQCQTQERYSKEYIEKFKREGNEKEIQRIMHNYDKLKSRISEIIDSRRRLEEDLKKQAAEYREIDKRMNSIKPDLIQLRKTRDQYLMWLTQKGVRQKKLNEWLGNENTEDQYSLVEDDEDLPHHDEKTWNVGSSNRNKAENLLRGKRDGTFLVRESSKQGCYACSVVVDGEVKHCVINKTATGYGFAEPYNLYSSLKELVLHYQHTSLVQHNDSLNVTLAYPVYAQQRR

Regarding `C=CC(=O)Nc1cccc(Oc2nc(Nc3ccc(N4CCN(C)CC4)cc3)nc3ccsc23)c1` [Olmutinib, olmutinib, reference compound], the IC50 was 4.29 ± 0.21 µM in the data set on A549 cells; 0.52 ± 0.1 µM in the data set with H1975 cells; 5.29 ± 0.59 µM with NCI-H460 cells; 26.9 ± 0.93 µM in the data set on MCF-7 cells; 25.8 ± 1.31 µM with LO2 cells; greater than 10 µM against PI3Kα. For the same compound, the IC50 in data set [1] is 0.0092 µM; in [2], 0.01 µM; with A549 (EGFR^WT) cells, 0.225 µM. In addition, the toxic side effects entry in data set [3] is “palmoplantar keratoderma and diarrhea”.

(Values after paper PMC8160875 (Molecules, 2021).)
